Assay results as given in US20220362174A1, “Use of R-enantiomer Beta2-agonists for prevent and treatment of pulmonary inflammation and inflammatory remodeling for reduced adverse effects” (priority 2019, published 2022).
Entries after “also recorded” stand apart in the source; their conditions may differ.

What was measured:
[1] = test system: p38 MAPK; assay: Western blot of lung tissue: p38 MAPK phosphorylation; type: in vivo, mice; conditions: vs OVA group
Protocol: (§1) OVA sensitized/challenged asthma model Mice were sensitized and challenged with ovalbumin (OVA) or normal saline. Briefly, mice were sensitized by intraperitoneal (i.p.) injection of 0.2 mL of 2% aluminum hydroxide (ALUM) gel containing 10 μg of OVA antigen on days 0 and 14. On days 21, 22 and 23, the mice were challenged with 1% OVA in saline (0.01 g/mL) for 20 min via. a nebulizer (PART Turbo boy). On day 26, a 20 min nebulized OVA challenge with 5% OVA in saline (0.05 g/mL) was conducted. The control group received 0.2 mL of saline with 2% ALUM administered intraperitoneally on days 0 and 14 before receiving 20 min nebulized normal saline without OVA on days 21, 22, 23 and 26.
(§2) Total protein from lung tissue was extracted according to the guidelines of manufacturer (Beyotime, China) and the concentrations were determined by BCA assay (Pierce). Primary antibodies against p38 MAPK (CST #8690), p-p38 MAPK (Thr180/Tyr182, CST #4511), NF-κB p65 (GeneTex #GTX102090), p-NF-κB p65 (S536, CST #3033) and GAPDH (Affinity #AF7021) as a standard were purchased and used.

[2] = test system: OVA-sensitized/OVA-challenged mice; assay: Airway responsiveness to methacholine by whole-body plethysmography (Penh) in OVA sensitized/challenged asthma model; type: in vivo; conditions: for airway bronchoconstriction/hyperactivity (Penh) in response to increased doses of Mch: Mch 2, 10, 20 mg/mL aerosol, rac-ter at double dose of R-ter
Protocol: as §1
In vivo airway responsiveness to methacholine (Mch) was assessed on day 28 in conscious, freely moving, spontaneously breathing mice by a whole-body plethysmography (Buxco Electronics Inc.). Mice were challenged with aerosolized saline or increasing concentrations of Mch (2, 10, 20 mg/mL) administered by an ultrasonic nebulizer for 2 min. Before Mch challenge, a 20 μL drug aerosol or saline was given to the mice because of the short-acting bronchodilating effect of terbutaline. The degree of bronchoconstriction was expressed as enhanced pause (Penh), a calculated dimensionless value that correlates with measurement of airway resistance, impedance, and intrapleural pressure. Penh values were recorded and averaged for 4 min after each nebulization challenge.

[3] = test system: Th2 cytokines (IL-4, IL-5, IL-13); assay: Analysis of cytokine levels in BAL fluid (ELISA); type: in vivo, mice; conditions: for cytokines released (FIG. 3): pretreatment for 7 consecutive days; for IL-5 in BALF / IL-4 release in BALF / IL-13 release in BALF: vs OVA group
Protocol: as §1
BAL fluid samples were analyzed for the concentrations of mouse IL-4 and IL-5 using commercial ELISA kits according to the manufacturers instructions (R&D Systems, Minneapolis, Minn.). IL-13 was assayed in BAL fluid with a mouse IL-13 immunoassay kit (Abeam, Cambridge, UK) following the manufacturer's protocol.

[4] = test system: NF-κB and MARK pathways; assay: NF-κB and MARK pathways, cytokines and ROS in LPS sepsis
From the text: LPS interacts with pathogen recognition receptors such as TLRs would also activate NF-κB and MARK pathways, which would further lead to an over-production of cytokines. […] The “cytokine storm” in sepsis involves in excessive release of INFs, IL-1B, IL-2,4,6,10,12, TNFa and MCP etc.
In sepsis, there are also over productions of chemokines such as ROS. […] This invention disclosed the similar effects of other RS-racemic, S-enantiomer or R-enantiomer beta2 agonists including: salbutamol, bambuterol, vilanterol, clenterol, salmeterol, formoterol, trantinterol and Indacaterol and other β2 agonists.

[5] = test system: OVA-sensitized/OVA-challenged mice; assay: Lung histopathology (H&E, PAS, Masson) after R-, S-, rac-terbutaline; type: in vivo; conditions: for PAS stain of lung tissues: inflammatory and histopathological changes, collagen deposition: Example 3, vs model; for wall thickness of vessels / inflammatory remodeling processes: repeated inhalation, OVA mice; for PAS and Masson staining: subepithelial matrix glycoproteins, goblet cell hyperplasia, collagen deposition: vs OVA group; for smooth muscle hypertrophy, thickness of bronchial and vascular smooth muscle layer: vs OVA-treated mice
Protocol: as §1
Left lung tissue was obtained for histopathology and fixed in 10% formalin for 24 h, followed by paraffin-embedded and then were sectioned at 4 μm for routine staining with hematoxylin and eosin (H&E, Solarbio, Beijing, China), or with periodic acid-Schiff (PAS, Solarbio, Beijing, China), or submitted to Masson's trichrome staining (Baso, Zhuhai, China). Images of the stained lung sections were obtained by an Axisplus image-capturing system (Zeiss, Germany) and then a minimum of 3 bronchi (luminal diameter, 150-500 μm) were analyzed per mice for various parameters using an image analyzing computer system (IPP) by pathologists blinded to grouping. Histological score, airway smooth muscle thickness, PAS score (goblet cells hyperplasia), and collagen deposition were evaluated by a semi-quantitative scoring method.

[6] = test system: NF-κB p65; assay: Western blot of lung tissue: NF-κB p65 phosphorylation; type: in vivo, mice
Protocol: as §1, §2

[7] = test system: OVA-sIgE; assay: Measurement of OVA-sIgE in plasma (ELISA); type: in vivo, mice; conditions: vs OVA group
Protocol: as §1
OVA-sIgE in plasma was measured using an enzyme-linked immunosorbent assay (ELISA) kit following the manufacturer's specification.

[8] = test system: OVA-sensitized/OVA-challenged mice; assay: Whole blood analysis and eosinophils counts in BAL fluid; type: in vivo; conditions: for per cent of eosinophil counts in blood and BALF: OVA asthma mice after repeated inhalation
Protocol: as §1
After Methacholine challenge, mice were anesthetized, blood was collected for hematology analysis. Part of the collected blood was transferred to a heparinized Eppendorf tube, gently mixed and centrifuged under 845×g at 4° C. for 10 min to isolate plasma specimen for further analysis. Broncho alveolar lavage (BAL) was performed on the right lung using 0.3 mL of phosphate buffered saline (PBS) for four times. The saline was instilled into the lungs and allowed to equilibrate for 30 s before recovery, after centrifugation supernatants were stored at −80° C. for further cytokines analysis while cell pellet was suspended in 0.5 ml PBS and the eosinophils counts were performed using Wright's stain. Then all the organs (liver, right lung lobe, spleen, kidneys, heart, brain) were excised surgically and washed totally with ice-cold PBS to clear the blood and then blotted dry with filter paper. These tissue specimens were then accurately weighted and stored at −80° C. for detecting the drug distribution by LC-MS/MS. White blood cell (WBC) counts and differential WBC counts were analyzed using a ProCyte Dx Hematology Analyzer (IDEXX Laboratories) in 4 h after blood collection.

[9] = test system: BALB/c mice; assay: Survival study after LPS challenge (sepsis); type: in vivo
Protocol: Treatment were given intraperitoneally for 3 consecutive days. One hour after the 3rd day treatments, LPS (15 mg/kg) was administered intraperitoneally. The animals were monitored. Survival rate was then recorded every 12 h for 144 hours.

[10] = test system: NF-κB; assay: mRNA of NF-κB in the lung by quantitative real-time PCR; type: in vivo, mice; conditions: vs OVA group
Protocol: as §1
The level of mRNA of NF-κB in the lung were analyzed by quantitative real-time PCR analysis. The total RNA was extracted from lung tissue using RNaEX™ Total RNA Isolation Kit (Generay Biotech). The quality and quantity of RNA samples were assessed by NanoDrop ND-2000c spectrophotometer (Thermo Fisher Scientific, Inc., Wilmington, Del.). Total RNA (1 μg) was reverse transcribed into cDNA using cDNA Reverse Transcription Kit (Vazyme Biotech, Nanjing, China) according to the manufacturer's instruction. Real-time PCR reactions were performed using the 7500 real-time-PCR system (Applied Biosystems, Foster City, Calif., USA) with AceQ qPCR SYBR Green Master Mix (Vazyme Biotech, Nanjing, China). […]

[11] = 0.5 mg/kg + LPS, Saline + LPS 90.9

| SMILES | p38 MAPK phosphorylation (ratio of phosphorylated to total p38 MAPK) [1] | airway bronchoconstriction/hyperactivity (Penh) in response to increased doses of Mch [2] | cytokines released (FIG. 3) [3] | NF-κB and MARK pathways activated by LPS (expression or phosphorylation) ([4]; LPS sepsis) | PAS stain of lung tissues: inflammatory and histopathological changes, collagen deposition [5] | wall thickness of vessels / inflammatory remodeling processes [5] | PAS and Masson staining: subepithelial matrix glycoproteins, goblet cell hyperplasia, collagen deposition [5] | smooth muscle hypertrophy, thickness of bronchial and vascular smooth muscle layer [5] | ratio of phosphorylated to total p65 NF-κB [6] | OVA-sIgE level in plasma [7] | per cent of eosinophil counts in blood and BALF [8] | NF-κB expression (mRNA transcript) in lung [10] | other results |
| --- | --- | --- | --- | --- | --- | --- | --- | --- | --- | --- | --- | --- | --- |
| CC(C)(C)NC[C@H](O)c1cc(O)cc(O)c1 [R-terbutaline] | decreased | attenuated significantly | significantly inhibited the release | significantly inhibited | significantly ameliorate; also recorded: significantly alleviated or improved | significantly diminished | reversed and recovered toward normal | suppressed | decreased | markedly inhibited | significantly reduced | effectively inhibited | p38 MAPK phosphorylation (ratio of phosphorylated to total p38 MAPK) ([1]; listed as R-ter): markedly suppressed; baseline Penh value (baseline airway reactivity) ([2]; exposure to saline, after 7 days inhalation pretreatment, OVA group 0.80±0.12, Control group 0.55±0.08, rac-terbutaline at double molar amount): significantly reduce; IL-5 in BALF [3]: significantly inhibited; IL-5 in BALF ([3]; listed as R-ter): significantly reduced; over production of inducible NO (iNO) and another ROS ([4]; LPS sepsis): significantly prevent and inhibit; production or release of cytokines (cytokine storm) ([4]; sepsis): significantly reduced; degree of inflammatory cell infiltration (H&E, histological score) ([5]; rac-terbutaline at double dose): ameliorated; influx of eosinophils into BALF ([8]; OVA asthma mice): significantly inhibited; Percent of death after LPS challenges, 12 h ([9]; 0.5 mg/kg + LPS, Saline + LPS 0): 0%; Percent of death after LPS challenges, 24 h ([9]; 0.5 mg/kg + LPS, Saline + LPS 36.4): 18.2%; Percent of death after LPS challenges, 36 h ([9]; 0.5 mg/kg + LPS, Saline + LPS 72.7): 27.3%; Percent of death after LPS challenges, 48 h [9, 11]: 36.4%; Percent of death after LPS challenges, 72 h [9, 11]: 36.4%; Percent of death after LPS challenges, 144 h [9, 11]: 36.4%; rate of mortality/death after LPS challenge (in words) ([9]; in comparison of LPS challenged group without pretreatment (mortality 90.9%)): greatly reduced or even diminished |
| CC(C)(C)NC[C@@H](O)c1cc(O)cc(O)c1 [S-terbutaline] | enhanced | further exacerbation of airway hyperactivity | did the opposite | further enhanced | further enhanced; also recorded: further worsened | further increase of wall thickness of vessels | further exacerbated | further enhanced | enhanced | further increase | significantly increased; also recorded: significantly higher; also recorded: the highest | further enhanced | p38 MAPK phosphorylation (ratio of phosphorylated to total p38 MAPK) ([1]; listed as S-ter): further increased; lung compliance ([2]; OVA induced asthma mice, baseline): reduced lung compliances; IL-4 release in BALF [3]: further increase; IL-13 release in BALF [3]: further increase; IL-4 release in BALF ([3]; listed as S-ter): further increased; IL-13 release in BALF ([3]; listed as S-ter): further increased |
